Data published in paper PMC7023430, “4-Aminobenzoic Acid Derivatives: Converting Folate Precursor to Antimicrobial and Cytotoxic Agents” (Biomolecules, 2019).
In brackets after ≈: the same amount, converted by molar mass. Where two headings read alike, the source gives them in different places.

Key:
[1] = system: Staphylococcus aureus ATCC 29213, CCM 4223; experiment: Antibacterial microdilution broth method, S. aureus; format: cell-based
[2] = system: Mycobacterium tuberculosis H37Rv (331/88); experiment: Antimycobacterial micromethod in Šula's medium, M. tuberculosis; format: cell-based
[3] = system: Candida albicans ATCC 44859; experiment: Antifungal microdilution broth method, C. albicans; format: cell-based
Summary of the method: (§1)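 EUCAST-based broth microdilution with slight modifications: compounds dissolved in DMSO and diluted twofold in RPMI-1640 with L-glutamine, 2% glucose, MOPS-buffered to pH 7.0. MIC endpoints were read visually, in duplicate, valid only if parallel MICs differed by no more than one dilution step.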

[4] = system: Aspergillus fumigatus 231; experiment: Antifungal microdilution broth method, A. fumigatus; format: cell-based
Summary of the method: as §1

HepG2 cells = experiment: Cytotoxicity, CellTiter 96 assay; format: cell-based, human; settings: 24 h incubation
Procedure: HepG2, human hepatocellular carcinoma cells (ATCC HB-8065; passage 5–8) purchased from Health Protection Agency Culture Collections (ECACC, Salisbury, UK) were cultured in Minimum Essentials Eagle Medium supplemented with 10% fetal bovine serum, 1% L-glutamine solution and non-essential amino acid solution (Sigma-Aldrich, St. Louis, MO, USA) in a humidified atmosphere containing 5% CO2 at 37 °C. For subculturing, the cells were harvested after trypsin/EDTA (Sigma-Aldrich, St. Louis, USA) treatment at 37 °C. To evaluate cytotoxicity, the cells treated with the tested substances were used as experimental groups whereas untreated HepG2 cells served as control groups.
The cells were seeded in a density of 10 000 cells per well in a 96-well plate. The following day the cells were treated with each of the tested substances dissolved in DMSO (maximal incubation concentration of DMSO was 1% v/v). The tested substances were prepared at different incubation concentrations in triplicates according to their solubility. Simultaneously, the controls representing 100% cell viability, 0% cell viability (the cells treated with 10% DMSO), no cell control and vehiculum controls were also involved in triplicates. After 24 h incubation in a humidified atmosphere containing 5% CO2 at 37 °C, the reagent from the kit CellTiter 96 AQueous One Solution Cell Proliferation Assay (CellTiter 96; Promega, Fitchburg, WI, USA) was added. After 2 h incubation at 37 °C absorbance of samples was recorded at 490 nm (TECAN, Infinita M200, Grödig, Austria). A standard toxicological parameter IC50 was calculated by nonlinear regression from a semilogarithmic plot of incubation concentration versus percentage of absorbance relative to untreated controls using GraphPad Prism software (version 6; GraphPad Software, Inc., La Jolla, CA, USA).
The CellTiter 96 assay used is based on the reduction of tetrazolium dye in living cells to formazan, which is then determined colorimetrically. This reduction is related to availability of NADH or NADPH. The decline in levels of these metabolically important compounds in the cell causes that the production of formazan is reduced. For quantitative comparison of cytotoxicity, the parameter IC50 was used.

[5] = system: four Gram-positive and four Gram-negative strains; experiment: Antibacterial activity; format: cell-based
eight fungal strains = experiment: Antifungal activity; format: cell-based; settings: statement over the fungal panel; time not stated
Procedure: The antifungal properties were evaluated against five yeast strains, namely: Candida albicans ATCC 44859, Candida tropicalis 156, Candida krusei […], Candida glabrata 20/I, Trichosporon […] 1188 and three strains of filamentous fungi: Aspergillus fumigatus 231, Lichtheimia corymbifera 272, and Trichophyton interdigitale 445. A microdilution broth method was performed according to EUCAST II, III instructions with slight modifications. Briefly, tested compounds were dissolved in DMSO and diluted in a twofold manner with RPMI-1640 medium with L-glutamine, supplemented with 2% glucose (w/v) and buffered to pH 7.0 with 3 morpholinopropane-1-sulfonic acid (all components were purchased from Sigma-Aldrich, USA). […] Positive controls consisted of test microbe solely, while negative controls consisted of medium and DMSO. Internal quality control was included too. Visual inspection was used for MIC endpoints evaluation. The experiments were conducted in duplicates. For the results to be valid, the difference in MIC determined from two parallel measurements must not be greater than one step on the dilution scale. PABA and triazole antimycotic drug fluconazole were involved as the reference compounds.

[6] = system: Mtb. 331/88 and three non-tuberculous mycobacterial strains; experiment: Antimycobacterial activity; format: cell-based; settings: Mycobacterium tuberculosis; statement over four mycobacterial strains; time not stated
[7] = 24 h incubation, read-out: MIC SA 24 h
[8] = 48 h incubation, read-out: MIC SA 48 h
[9] = 336 h, 14 days incubation at 37 °C, read-out: MIC Mtb. 331/88 14 d
[10] = 504 h, 21 days incubation at 37 °C, read-out: MIC Mtb. 331/88 21 d
[11] = ATCC44859, 24 h, read-out: MIC CA 24 h
[12] = ATCC44859, 48 h, read-out: MIC CA 48 h
[13] = time not stated, read-out: MIC, S. epidermidis (1e MRSA, too)

SMILES | MIC [1, 7] | MIC [1, 8] | MIC [2, 9] | MIC [2, 10] | MIC [3, 11] | MIC [3, 12] | MIC ([4]; 24 h, read-out: MIC AF 24 h) | MIC ([4]; 48 h, read-out: MIC AF 48 h) | IC50 (HepG2 cells; Homo sapiens, HepG2, 24 h) | MIC [5, 13] | MIC, antifungal activity (eight fungal strains) | MIC (eight fungal strains) | MIC ([5]; converted from 62.5–125 µM, read-out: MIC, staphylococci) | MIC ([5]; read-out: MIC, three staphylococcal strains) | MIC [6] | IC50 (HepG2 cells) | MIC ([5]; Staphylococcus aureus, MRSA, time not stated, read-out: MIC, multiple Gram-positive strains including MRSA)
O=C(O)c1ccc(N=Cc2cc(I)cc(I)c2O)cc1 [1q, 4-[(2-Hydroxy-3,5-diiodobenzylidene)amino]benzoic acid] | 62.5 µM (≈ 30.8 µg/mL) | 62.5 µM (≈ 30.8 µg/mL) | 250 µM (≈ 123 µg/mL) | 250 µM (≈ 123 µg/mL) | 7.81 µM (≈ 3.85 µg/mL) | 7.81 µM (≈ 3.85 µg/mL) | 125 µM (≈ 61.6 µg/mL) | 125 µM (≈ 61.6 µg/mL) | 57.8 µM |  |  |  |  |  |  |  | 
O=C(O)c1ccc(N=Cc2cc(Cl)ccc2O)cc1 [1c, 4-[(5-Chloro-2-hydroxybenzylidene)amino]benzoic acid] | > 500 µM | > 500 µM | 250 µM (≈ 68.9 µg/mL) | 500 µM (≈ 138 µg/mL) | > 125 µM | > 125 µM | > 125 µM | > 125 µM | 143 µM | ≥ 62.5 µM |  |  |  |  |  |  | 
O=C(O)c1ccc(N=Cc2cc(Br)ccc2O)cc1 [1d, 4-[(5-Bromo-2-hydroxybenzylidene)amino]benzoic acid] | > 250 µM | > 250 µM | 250 µM (≈ 80 µg/mL) | 500 µM (≈ 160 µg/mL) | 62.5 µM (≈ 20 µg/mL) | 62.5 µM (≈ 20 µg/mL) | 250 µM (≈ 80 µg/mL) | 250 µM (≈ 80 µg/mL) | 179 µM | ≥ 62.5 µM |  |  |  |  |  |  | 
CC(C)(C)c1ccc(O)c(C=Nc2ccc(C(=O)O)cc2)c1 [1j, 4-{[5-(Tert-butyl)-2-hydroxybenzylidene]amino}benzoic acid] | > 500 µM | > 500 µM | 250 µM (≈ 74.3 µg/mL) | 250 µM (≈ 74.3 µg/mL) | > 500 µM | > 500 µM | > 500 µM | > 500 µM | 80.8 µM |  | not translated into any antifungal action |  |  |  |  |  | 
O=C(O)c1ccc(N=Cc2cccc(Cl)c2O)cc1 [1m, 4-[(3-Chloro-2-hydroxybenzylidene)amino]benzoic acid] | > 500 µM | > 500 µM | 500 µM (≈ 138 µg/mL) | 500 µM (≈ 138 µg/mL) | 31.2 µM (≈ 8.62 µg/mL) | 31.2 µM (≈ 8.62 µg/mL) | 250 µM (≈ 68.9 µg/mL) | 250 µM (≈ 68.9 µg/mL) | 247 µM |  |  | ≥ 31.2 µM |  |  |  |  | 
O=C(O)c1ccc(N=Cc2cc(Cl)cc(Cl)c2O)cc1 [1n, 4-[(3,5-Dichloro-2-hydroxybenzylidene)amino]benzoic acid] | 125 µM (≈ 38.8 µg/mL) | 125 µM (≈ 38.8 µg/mL) | 500 µM (≈ 155 µg/mL) | 500 µM (≈ 155 µg/mL) | 125 µM (≈ 38.8 µg/mL) | 125 µM (≈ 38.8 µg/mL) | 500 µM (≈ 155 µg/mL) | 500 µM (≈ 155 µg/mL) | 98.7 µM |  |  | ≥ 125 µM |  |  |  |  | 
O=C(O)c1ccc(N=Cc2ccc([N+](=O)[O-])o2)cc1 [1r, 4-{[(5-Nitrofuran-2-yl)methylene]amino}benzoic acid] | 62.5 µM (≈ 16.3 µg/mL) | 62.5 µM (≈ 16.3 µg/mL) | 62.5 µM (≈ 16.3 µg/mL) | 125 µM (≈ 32.5 µg/mL) | 250 µM (≈ 65.1 µg/mL) | 250 µM (≈ 65.1 µg/mL) | > 500 µM | > 500 µM | 15 µM |  |  |  | 16.2 to 32.5 µg/mL | 62.5 to 125 µM | 62.5 to 250 µM (≈ 16.3 to 65.1 µg/mL) |  | 
O=C(O)c1ccc(N=Cc2ccc(Cl)cc2O)cc1 [1l, 4-[(4-Chloro-2-hydroxybenzylidene)amino]benzoic acid] | > 500 µM | > 500 µM | 250 µM (≈ 68.9 µg/mL) | 500 µM (≈ 138 µg/mL) | 250 µM (≈ 68.9 µg/mL) | > 500 µM | 250 µM (≈ 68.9 µg/mL) | > 500 µM | 264 µM |  |  | ≥ 250 µM |  |  |  |  | 
Cc1ccc(O)c(C=Nc2ccc(C(=O)O)cc2)c1 [1g, 4-[(2-Hydroxy-5-methylbenzylidene)amino]benzoic acid] | > 500 µM | > 500 µM | 500 µM (≈ 128 µg/mL) | 500 µM (≈ 128 µg/mL) | > 125 µM | > 125 µM | > 125 µM | > 125 µM | > 500 µM |  | not translated into any antifungal action |  |  |  |  | 956 µM | 
O=C(O)c1ccc(N=Cc2cc(F)ccc2O)cc1 [1b, 4-[(5-Fluoro-2-hydroxybenzylidene)amino]benzoic acid] | > 500 µM | > 500 µM | 500 µM (≈ 130 µg/mL) | 500 µM (≈ 130 µg/mL) | > 500 µM | > 500 µM | > 500 µM | > 500 µM | 498 µM |  | not translated into any antifungal action | > 500 µM |  |  |  |  | 
O=C(O)c1ccc(N=Cc2cc(Cl)cc(Br)c2O)cc1 [1o, 4-[(3-Bromo-5-chloro-2-hydroxybenzylidene)amino]benzoic acid] | 15.6 µM (≈ 5.54 µg/mL) | 15.6 µM (≈ 5.54 µg/mL) | 250 µM (≈ 88.6 µg/mL) | 500 µM (≈ 177 µg/mL) | 31.2 µM (≈ 11.1 µg/mL) | 31.2 µM (≈ 11.1 µg/mL) | 250 µM (≈ 88.6 µg/mL) | 250 µM (≈ 88.6 µg/mL) | 85.7 µM |  |  |  |  |  |  |  | 
COc1ccc(O)c(C=Nc2ccc(C(=O)O)cc2)c1 [1h, 4-[(2-Hydroxy-5-methoxybenzylidene)amino]benzoic acid] | > 500 µM | > 500 µM | 250 µM (≈ 67.8 µg/mL) | 500 µM (≈ 136 µg/mL) | 250 µM (≈ 67.8 µg/mL) | 250 µM (≈ 67.8 µg/mL) | > 500 µM | > 500 µM | > 500 µM |  |  | ≥ 250 µM |  |  |  | 530 µM | 
O=C(O)c1ccc(N=Cc2cc(Cl)cc(I)c2O)cc1 [1p, 4-[(5-Chloro-2-hydroxy-3-iodobenzylidene)amino]benzoic acid] | 15.6 µM (≈ 6.27 µg/mL) | 15.6 µM (≈ 6.27 µg/mL) | 250 µM (≈ 100 µg/mL) | 250 µM (≈ 100 µg/mL) | 7.81 µM (≈ 3.14 µg/mL) | 7.81 µM (≈ 3.14 µg/mL) | 125 µM (≈ 50.2 µg/mL) | 125 µM (≈ 50.2 µg/mL) | 53.4 µM |  |  |  |  |  |  |  | 
O=C(O)c1ccc(N=Cc2cc([N+](=O)[O-])ccc2O)cc1 [1f, 4-[(2-Hydroxy-5-nitrobenzylidene)amino]benzoic acid] | 500 µM (≈ 143 µg/mL) | 500 µM (≈ 143 µg/mL) | 250 µM (≈ 71.6 µg/mL) | 500 µM (≈ 143 µg/mL) | 500 µM (≈ 143 µg/mL) | 500 µM (≈ 143 µg/mL) | > 500 µM | > 500 µM | 244 µM |  |  | ≥ 250 µM |  |  |  |  | ≥ 250 µM
O=C(O)c1ccc(N=Cc2cc(I)ccc2O)cc1 [1e, 4-[(2-Hydroxy-5-iodobenzylidene)amino]benzoic acid] | > 250 µM | > 250 µM | 250 µM (≈ 91.8 µg/mL) | 250 µM (≈ 91.8 µg/mL) | 62.5 µM (≈ 22.9 µg/mL) | 62.5 µM (≈ 22.9 µg/mL) | 125 µM (≈ 45.9 µg/mL) | 125 µM (≈ 45.9 µg/mL) | 113 µM | ≥ 62.5 µM |  | ≥ 31.2 µM |  |  |  |  | 
O=C(O)c1ccc(N=Cc2c(O)cccc2Cl)cc1 [1k, 4-[(2-Chloro-6-hydroxybenzylidene)amino]benzoic acid] | > 500 µM | > 500 µM | 250 µM (≈ 68.9 µg/mL) | 500 µM (≈ 138 µg/mL) | 125 µM (≈ 34.5 µg/mL) | 125 µM (≈ 34.5 µg/mL) | > 125 µM | > 125 µM | 280 µM |  |  |  |  |  |  |  | 
